Patent publication US20090131354A1, “miR-126 REGULATED GENES AND PATHWAYS AS TARGETS FOR THERAPEUTIC INTERVENTION” (priority 2007, published 2009)

What was measured:
SCLC and NSCLC cells = settings: various lung cancer cells; cited from earlier work
[1] = test system: human H460 lung cancer xenografts; experiment: H460 lung cancer xenograft, cells electroporated before implantation; assay type: in vivo, NOD/SCID mice; settings: H460, day 7
Procedure: The inventors assessed the growth-inhibitory activity of hsa-miR-126 in human lung cancer xenografts grown in immunodeficient mice. Hsa-miR-126 was delivered into A549 and H460 lung cancer cells via electroporation using the Gene Pulser Xcell™ (BioRad) with the following settings: 15×10^6 cells with 5 μg miRNA in 200 μl OptiMEM, square wave pulse at 150 V for 10 ms. Electroporated cells (5×10^6) were mixed with BD Matrigel™, (BD Biosciences; San Jose, Calif., USA; cat. no. 356237) in a 1:1 ratio and injected subcutaneously into the flank of NOD/SCID mice (Charles River Laboratories, Inc.; Wilmington, Mass., USA). As a negative control, A549 and H460 cells were electroporated with negative control (NC) miRNA (Pre-miR™ microRNA Precursor Molecule-Negative Control #2; Ambion cat. no. AM17111) as described above. To assess the anti-oncogenic activity of hsa-miR-126, six animals were injected with A459 cells and six animals were injected with H460 cells. NC miRNA-treated cells were injected into the opposite flank of the same animal to control for animal-to-animal variability. Once tumors reached a measurable size (A549 at 7 days post injection; H460 at 5 days post injection), the length and width of tumors were determined every day for up to 11 days. Tumor volumes were calculated using the formula, Volume=length X width X width/2, in which the length is greater than the width. […]

[2] = test system: PPC-1 prostate cancer cells; experiment: Alamar Blue proliferation assay, PPC-1; assay type: cell-based, human; settings: PPC-1 cells, 30 nM, normalized to negative control miRNA (100% proliferation)
From the text: The inventors assessed the therapeutic effect of hsa-miR-126 for prostate cancer by using 4 individual human prostate cancer cell lines. To measure cellular proliferation of prostate cancer cells, the following prostate cancer cell lines were used: PPC-1, derived from a bone metastasis; Du145, derived from a brain metastasis; RWPE2, derived from prostate cells immortalized by human papillomavirus 18 and transformed by the K-RAS oncogene; and LNCaP, derived from a lymph node metastasis (Stone et al., 1978; Horoszewicz et al., 1980; Brothman et al., 1991; Pretlow et al., 1993; Bello et al., 1997). PPC-1 and Du145 cells lack expression of the prostate-specific antigen (PSA) and are independent of androgen receptor (AR) signaling. In contrast, RWPE2 and LNCaP cells test positive for PSA and AR. Cells were transfected with synthetic hsa-miR-126 (Pre-miR™-hsa-miR-126, Ambion cat. no. AM 17100) or negative control miRNA (NC; Pre-miR™ microRNA Precursor Molecule-Negative Control #2; Ambion cat. no. AM17111) in a 96-well format using a lipid-based transfection reagent. […] Proliferation was assessed 4-7 days post-transfection using Alamar Blue™ (Invitrogen) following the manufacturer's instructions. […] Fluorescent light units (FLU) were measured after 3 hours, normalized to the control, and plotted as percent change in proliferation. […]

[3] = test system: Du145 prostate cancer cells; experiment: Long-term growth curve with repeated electroporation, Du145; assay type: cell-based, human
From the text: To evaluate the therapeutic activity of hsa-miR-126 over an extended period of time, we conducted growth curve experiments in the presence of miRNA for up to 21 days. Since in vitro transfections of naked interfering RNAs, such as synthetic miRNA, are transient by nature and compromised by the dilution of the oligonucleotide during ongoing cell divisions, we administered miRNA at multiple time points (Bartlett and Davis, 2006; Bartlett and Davis, 2007). To accommodate miRNA delivery into a large quantity of cells, we employed the electroporation method to delivery hsa-miR-126 or negative control miRNA into PPC-1, PC3 and Du145 human prostate cancer cells. Briefly, 1×10^6 PPC-1 or PC3 cells, and 0.5×10^6 Du145 cells were electroporated with 1.6 μM hsa-miR-126 or negative control using the BioRad Gene Pulser Xcell™ instrument (BioRad Laboratories Inc., Hercules, Calif., USA), seeded and propagated in regular growth medium. Experiments with PC3 and Du145 cells were carried out in triplicates. When the control cells reached confluence (days 4 and 11 for PPC-1; days 7 and 14 for PC3 and Du145), cells were harvested, counted and electroporated again with the respective miRNAs. […] The population doubling was calculated from these electroporation events using the formula PD=ln(Nf/N0)/ln2, and cell counts were extrapolated and plotted on a linear scale (FIGS. 10-12). […]

Molecule | IC50 (SCLC and NSCLC cells) [µM] | tumor size relative to control tumors [1] | % proliferation [2] [%] | inhibition of cell growth ([3]; Du145, day 20, 1.6 μM repeated electroporation, relative to control cells (100%)) [%] | remaining cells ([3]; Du145, day 20, relative to control cells (100%)) [%]
COc1cc([C@@H]2c3cc4c(cc3[C@@H](O[C@@H]3O[C@@H]5CO[C@@H](C)O[C@H]5[C@H](O)[C@H]3O)[C@H]3COC(=O)[C@H]23)OCO4)cc(OC)c1O [etoposide] | 1 to 25 |  |  |  | 
hsa-miR-126 (UCGUACCGUGAGUAAUAAUGC; synthetic pre-miR form, further chemistry not given here) [Synthetic hsa-miR-126 (Pre-miR™-hsa-miR-126, Ambion cat. no. AM17100)] |  | smaller in size | 71.89 | 83.9 | 16.1
